A compilation of properties of binary mixtures (doi:10.1016/j.molliq.2017.03.036)

Assay: xn = mol fraction of the nth substance listed
Conditions: 101 kPa

CC(=O)[O-].CC[n+]1ccn(C)c1 + CN(CCO)CCO
Conditions	electrical conductivity [S/m]	viscosity [mPa·s]
288.15 K, x1 = 0.1002	0.01	144.1
288.15 K, x1 = 0.2997	0.048	155.8
288.15 K, x1 = 0.4001	0.059	163
288.15 K, x1 = 0.5998	0.075	193
288.15 K, x1 = 0.7003	0.087	203
288.15 K, x1 = 0.7998	0.103	217
288.15 K, x1 = 0.8999	0.124	236
288.15 K, x1 = 1	0.151	288
293.15 K, x1 = 0.1002	0.014	107.2
293.15 K, x1 = 0.2002	0.044	112.8
293.15 K, x1 = 0.2997	0.059	118.3
293.15 K, x1 = 0.4995	0.085	128.7
293.15 K, x1 = 0.5998	0.099	140.6
293.15 K, x1 = 0.7003	0.116	147.3
293.15 K, x1 = 0.7998	0.138	154.8
293.15 K, x1 = 0.8999	0.169	170
293.15 K, x1 = 1	0.201	197
298.15 K, x1 = 0.1002	0.019	80.3
298.15 K, x1 = 0.2002	0.054	85.1
298.15 K, x1 = 0.2997	0.073	88.7
298.15 K, x1 = 0.4001	0.089	93.2
298.15 K, x1 = 0.5998	0.13	106.5
298.15 K, x1 = 0.7003	0.152	110.8
298.15 K, x1 = 0.7998	0.184	114.1
298.15 K, x1 = 0.8999	0.227	127.2
298.15 K, x1 = 1	0.278	140
303.15 K, x1 = 0.1002	0.025	60.8
303.15 K, x1 = 0.2997	0.091	68.6
303.15 K, x1 = 0.4001	0.115	71.9
303.15 K, x1 = 0.4995	0.148	75.7
303.15 K, x1 = 0.7003	0.204	83.8
303.15 K, x1 = 0.7998	0.242	86.6
303.15 K, x1 = 0.8999	0.295	95.8
308.15 K, x1 = 0.1002	0.032	47.2
308.15 K, x1 = 0.2002	0.079	50.7
308.15 K, x1 = 0.2997	0.11	53.3
308.15 K, x1 = 0.4001	0.143	56.1
308.15 K, x1 = 0.4995	0.185	59.9
308.15 K, x1 = 0.5998	0.217	64.3
308.15 K, x1 = 0.7003	0.271	65.4
308.15 K, x1 = 0.7998	0.315	66.8
308.15 K, x1 = 1	0.461	78.3
313.15 K, x1 = 0.1002	0.04	37.2
313.15 K, x1 = 0.2002	0.093	40.3
313.15 K, x1 = 0.2997	0.134	42.9
313.15 K, x1 = 0.4001	0.175	45
313.15 K, x1 = 0.5998	0.273	51.7
313.15 K, x1 = 0.8999	0.486	58.1
313.15 K, x1 = 1	0.585	60.4
318.15 K, x1 = 0.2002	0.112	32
318.15 K, x1 = 0.2997	0.163	34.3
318.15 K, x1 = 0.4001	0.215	36.4
318.15 K, x1 = 0.4995	0.28	39.7
318.15 K, x1 = 0.5998	0.342	41.3
318.15 K, x1 = 0.7998	0.505	43.7
323.15 K, x1 = 0.2002	0.132	26.1
323.15 K, x1 = 0.2997	0.194	27.3
323.15 K, x1 = 0.4001	0.259	29.8
323.15 K, x1 = 0.4995	0.344	32.7
323.15 K, x1 = 0.5998	0.423	33.9
323.15 K, x1 = 0.7003	0.519	35.1
323.15 K, x1 = 0.7998	0.624	35.9
323.15 K, x1 = 0.8999	0.736	38.3
328.15 K, x1 = 0.2002	0.157	21.4
328.15 K, x1 = 0.2997	0.23	22.8
328.15 K, x1 = 0.4001	0.311	25
328.15 K, x1 = 0.7003	0.628	28.7
328.15 K, x1 = 0.7998	0.763	29.4
328.15 K, x1 = 0.8999	0.886	30.8
328.15 K, x1 = 1	1.06	31.2
333.15 K, x1 = 0.1002	0.09	15.76
333.15 K, x1 = 0.2002	0.184	17.9
333.15 K, x1 = 0.2997	0.273	19.4
333.15 K, x1 = 0.4001	0.371	20.6
333.15 K, x1 = 0.4995	0.495	22
333.15 K, x1 = 0.5998	0.628	23
333.15 K, x1 = 0.7003	0.755	23.8
333.15 K, x1 = 0.7998	0.909	24.5
338.15 K, x1 = 0.1002	0.108	13
338.15 K, x1 = 0.2002	0.215	14.46
338.15 K, x1 = 0.2997	0.322	16.9
338.15 K, x1 = 0.4001	0.437	17.3
338.15 K, x1 = 0.4995	0.583	18.7
338.15 K, x1 = 0.5998	0.742	19.3
338.15 K, x1 = 0.7003	0.896	19.9
338.15 K, x1 = 0.7998	1.08	20.5
338.15 K, x1 = 0.8999	1.25	21.1
338.15 K, x1 = 1	1.47	21.8
343.15 K, x1 = 0.1002	0.126	10.85
343.15 K, x1 = 0.2002	0.249	12.19
343.15 K, x1 = 0.2997	0.377	14.5
343.15 K, x1 = 0.4995	0.684	16.1
343.15 K, x1 = 0.5998	0.882	16.6
343.15 K, x1 = 0.7003	1.05	17.3
343.15 K, x1 = 0.7998	1.26	17.7
343.15 K, x1 = 0.8999	1.46	18.2
343.15 K, x1 = 1	1.71	18.8
348.15 K, x1 = 0.1002	0.148	9.17
348.15 K, x1 = 0.2002	0.287	10.36
348.15 K, x1 = 0.2997	0.441	12.49
348.15 K, x1 = 0.4001	0.605	12.74
348.15 K, x1 = 0.5998	1.04	14.22
348.15 K, x1 = 0.7003	1.22	14.67
348.15 K, x1 = 0.7998	1.46	15.22
348.15 K, x1 = 0.8999	1.68	15.69
348.15 K, x1 = 1	1.96	16.01
353.15 K, x1 = 0.1002	0.172	8.38
353.15 K, x1 = 0.2997	0.511	10.86
353.15 K, x1 = 0.4001	0.7	11.03
353.15 K, x1 = 0.4995	0.919	12.24
353.15 K, x1 = 0.7003	1.42	13.06
353.15 K, x1 = 0.8999	1.93	13.8
353.15 K, x1 = 1	2.22	14.07
